# Laboratory results as given in patent US20200056157A1, “LIVER ORGANOID DISEASE MODELS AND METHODS OF MAKING AND USING SAME” (Children's Hospital Medical Center, priority 2016, published 2020).
# Experiments:
# [1] = test system: human liver organoid (HLO); test: Lipids live-cell imaging (BODIPY, membrane dye) of FFA treated HLO; format: cell-based; conditions: for effectiveness in inducing lipid accumulation among FFAs (OA, LA, PA, SA): 800 μM, 3 days after FFA exposure, BODIPY
# Description: Currently, free fatty acids (FFA) are widely used as an initiating factor to establish an in vitro lipotoxic hepatocyte model; however, fat accumulation is the only phenotype (Kanuri and Bergheim, 2013). […] Given the presence of hepatocyte-, stellate- and Kupffer-like cells with lipid metabolism function-associated genes indicated by global transcriptome analysis, Applicant hypothesized that FFA exposure naturally triggers an inflammation response and resulting fibrotic response in HLO. To test this hypothesis, Applicant treated HLO for 3 to 5 days with FFA. […] To first compare the effect of multiple FFAs including oleic acid (OA, 18:1 n9), linoleic acid (LA, 18:2), palmitic acid (PA, 16:0), and stearic acid (SA, 18:0) on lipids accumulation, live-cell imaging was performed with lipid dye BODIPY at 3 days after the FFA exposure. […] Considering that OA triggers massive lipid accumulation, the concentration of OA was varied (0, 200, 400, and 800 μM) to trigger inflammatory reaction in sHLO. […] In addition to increase in lipid accumulation, the size of lipid droplets was enlarged (FIG. 4, B). Hepatocyte ballooning (enlargement) was one of the pathological grading indicators to determine the nonalcoholic steatohepatitis (NASH) activity (NAS scoring), which was confirmed in 800 μM OA treated sHLO by live imaging of cellular membrane (FIG., 4B). Triglycerides, a main constituent of lipids accumulated in the liver, were also detected in 800 μM treated sHLO, but not in untreated sHLO (FIG. 4, D). […] As FIG. 9 indicates, neither E-cad positive nor negative cells derived spheroids produced P3NP and IL-6 secreted production and overexpressed the gene expression of inflammatory markers.
# (§1) Phagocyte, lipids, ROS live-cell imaging. After being cultured in an ultra-low attachment 6 multi-well plate, 5-10 HLO were picked up and seeded in a Microslide 8 Well Glass Bottom plate (Ibidi, WI, USA) and subjected to live-cell staining. The following antibodies were used: pHrodo® Red S. aureus Bioparticles® Conjugate for Phagocyte activity (Thermo Fisher Scientific Inc.), BODIPY® 493/503 for lipids (Thermo Fisher Scientific Inc.), Di-8-ANEPPS for membrane (Thermo Fisher Scientific Inc.), and CellROX green reagent for ROS detection (Thermo Fisher Scientific Inc.). […] The final lipid droplet volume was calculated by IMARIS8 and normalized by each organoid size. Significance testing for lipid droplet volume and ROS production (%) was conducted by Student's t-test.
# LPS and FFA exposure and OCA and FGF19 treatment. 20-30 HLO, which had been isolated from Matrigel and washed by 1×PBS, were divided into each condition and cultured on an ultra-low attachment 6 multi-well plates (Corning). HLO were cultured with LPS (Sigma), OA (Sigma), LA (Sigma), SA (Sigma), or PA (Sigma) and collected at day 1 and 3 (for LPS HLO) and at day 3 and 5 (for OA) after the culture. To test the inhibitory effect of OCA (INT-747, MedChem Express, NJ, USA) and human FGF19 recombinant (Sigma) on HLO, 20-30 HLO were cultured in HCM media in the presence or absence of oleic acid (800 μM), and 1 μM OCA and 40 ng/ml FGF19 were added into 800 μM OA condition. HLO were collected at day 3 for lipids live-cell imaging and at day 5 for stiffness measurement.
# [2] = test system: human liver organoid (HLO); test: Triglyceride assay; format: cell-based; conditions: 800 μM OA, 3 days
# Procedure: Triglyceride assay. For quantitative determination of triglycerides, HLO were isolated from one Matrigel drop and divided into HCM media in the presence or absence of oleic acid (800 μM). They were cultured on an ultra-Low attachment 6 multi-well plate for three days. Quantitative estimation of hepatic triglyceride accumulation was performed by an enzymatic assay of triglyceride mass using the EnzyChrom Triglyceride assay kit (Bioassay Systems, CA, USA).
# IL-6 = IL-6 ELISA of HLO culture supernatant; format: cell-based, human; conditions: 800 μM OA treated sHLO culture media
# Procedure: (§2) Albumin, IL-6, and P3NP ELISA. To measure albumin secretion level of HLO, 200 μL of culture supernatant was collected from HLO embedded in Matrigel. For IL-6 and P3NP, 20-30 organoids were seeded and cultured on an ultra-low attachment multiwell plates 96 well plate (Corning). To define the exact number of organoids in each well and lastly normalize the secreted level for IL-6 and P3NP by the number, the organoids were captured on The KEYENCE BZ-X710 Fluorescence Microscope. The culture supernatants were collected at 24 hrs (for albumin), 96 hrs (for IL-6) and 120 hrs (P3NP) time points after the culture and stored at −80° C. until use. The supernatant was centrifuged at 1,500 rpm for 3 min and to pellet debris, and the resulting supernatant was assayed with Human Albumin ELISA Quantitation Set (Bethyl Laboratories, Inc., TX, USA), Human IL-6 ELISA Kit (Biolegend, CA, USA), and Human N-terminal procollagen III propeptide, PIIINP ELISA Kit (My BioSource, CA, USA) according to the manufacturer's instructions. Significance testing was conducted by Student's t-test.
# IL-8 = test: RT-qPCR of pro-inflammatory cytokine IL-8 in HLO; format: cell-based, human; conditions: 200 μM or 800 μM OA, normalized by 18S
# Procedure: (§3) RNA isolation, RT-qPCR. RNA was isolated using the RNeasy mini kit (Qiagen, Hilden, Germany). Reverse transcription was carried out using the SuperScriptIII First-Strand Synthesis System for RT-PCR (Invitrogen, CA, USA) according to manufacturer's protocol. qPCR was carried out using TaqMan gene expression master mix (Applied Biosystems) on a QuantStudio 3 Real-Time PCR System (Thermo Fisher Scientific Inc.). All primers and probe information for each target gene was obtained from the Universal ProbeLibrary Assay Design Center (https://qpcr.probefinder.com/organism.jsp). Significance testing was conducted by Student's t-test.
# TNF-alpha = test: RT-qPCR of pro-inflammatory cytokine TNF-alpha in HLO; format: cell-based, human; conditions: 200 μM or 800 μM OA, normalized by 18S
# Procedure: as §3
# THP-1 = THP-1 cell migration assay with HLO conditioned media; format: cell-based, human; conditions: OA-treated sHLO conditioned media (400, 800 μM OA), 24 hrs in transwells
# Procedure: THP-1 cell migration assay. THP-1 cell, which was gifted from T. Suzuki, was maintained in Advanced DMEM/F12 (Thermo Fisher Scientific Inc.) containing 10% FBS. THP-1 floating cells were collected, and 200,000 cells were added with serum-free Advanced DMEM/F12 to the membrane chamber of the CytoSelect™ 96-Well Cell Migration Assay (5 μm, Fluorometric Format; Cell Biolabs, CA, USA). 10-20 HLO were cultured in HCM media including 0, 400, 800 uM OA with an ultra-low attachment 96 multi-well plate (Corning) for three days. To define the exact number of organoids in each well and lastly normalize the final migrated cells by the number, the organoids were captured on The KEYENCE BZ-X710 Fluorescence Microscope. 150 μL of culture supernatant of HLO was collected and added to the feeder tray of the kit. The kit was incubated at 37° C. for 24 h in a 5% CO2 cell culture incubator. Cells that had migrated were counted using Countess II FL Automated Cell Counter (Thermo Fisher Scientific Inc.). Significance testing was conducted by Student's t-test.
# P3NP = P3NP ELISA of HLO culture supernatant; format: cell-based, human; conditions: 800 μM OA, day 5
# Procedure: as §2
# [3] = test system: human liver organoid (HLO); test: HLO stiffness measurement by AFM; format: cell-based
# Description: Applicant's preliminary qualitative analysis of smooth muscle actin immunostaining indicates dose dependent fibrosis progression by OA exposure (FIG. 2, H, I, and J). To gain more quantitative insights in a screenable format, Applicant thus assessed in the living state whether HLO fibrosis could increase the stiffness in a dose dependent fashion using micro-indentation with Atomic Force Microscopy (AFM). […] The Emedian values were 1.2 kPa, 1.6 kPa, 2.4 kPa and 2.8 kPa for 0, 200, 400, and 800 μM OA-treated organoids, respectively. Furthermore, difference between 90th percentile and 10th percentile (ΔP90-10) was 3.2 kPa for untreated organoids and 7.0 kPa for 800 μM OA-treated organoids was observed.
# HLO stiffness measurement by AFM. HLOs treated with […] were used for stiffness measurement with a AFM (NanoWizard IV, JPK Instruments, Germany). The AFM head with a silicon nitride cantilever (CSC37, k=0.3 N/m, MikroMasch, Bulgaria) was mounted on a fluorescence stereo microscope (M205 FA, Leica, Germany) coupled with a Z-axis piezo stage (JPK CellHesion module, JPK Instruments, Germany), which allows the indentation measurement up to the depth of ˜100 μm. As a substrate for organoids, a fibronectin-coated dish was used. The tissue culture dish (p=34 mm, TPP Techno Plastic Products, Switzerland) was first incubated with a 1 μg/mL fibronectin solution (Sigma)) at 4° C. for overnight. Then, the tissue culture dish was washed twice by distilled water and dried for 1 hour. Thereafter, HLOs incubated with […] were deposited to the fibronectin-coated dish and incubated for 1 hour at 37° C. The sample dish was then placed onto the AFM stage, and force-distance curves in a 14×14 matrix in a 25×25 μm square were measured from each HLO. Finally, Young's moduli (E, Pa) of HLO were determined by fitting the obtained force-distance curves with the modified Hertz model (Sneddon, 1965). Dunn-Holland-Wolfe test was performed for significance testings.
# [4] = test system: human liver organoid (HLO); test: Masson trichrome stain of HLO; format: cell-based
# Procedure: To further determine whether HLO progresses towards fibrosis-like condition, Applicant performed Masson trichrome stain on sHLO and cHLO. […] Moreover, ELISA of […] was also measured at day 5 of OA exposure. […] secretion was increased 2.8-fold in the culture media of 800 μM OA treated HLO when compared with the untreated (FIG. 4, J).
# [5] = test system: human iPSC-liver organoid; test: RA-based liver organoid differentiation (organoid number, size, luminal structure); format: cell-based; conditions: 4 days RA
# Description: To elucidate whether RA signaling has an impact on determining the lineage differentiation towards stromal cells, Applicant established a liver organoid model from human iPSCs by transient induction of RA. Applicant initially differentiated iPSCs to foregut spheroids through definitive endoderm (DE) specification as previously described (Spence et al., 2011). The foregut spheroids were mixed with the attached cells grown in the same well, and the mixture was embedded in Matrigel. […] The number of organoids was increased 1.8-fold in RA treated wells compared to untreated and the size was increased 1.5-fold after RA treatment (FIG. 1, B, C, and D). […] Of note, albumin secretion was maintained more than 40 days after day 20 when albumin was first detected (data not shown).
# HLO induction. At day 7, spheroids and attached cells are gently pipetted to be delaminated from dishes. They were centrifuged at 800 rpm for 3 minutes, embedded in a 100% Matrigel drop on the dishes in Advanced DMEM/F12 with B27, N2 and 2 uM retinoic acid (RA; Sigma, MO, USA) after removing supernatant, and cultured for 4 days. After RA treatment, spheroids embedded in the Matrigel drop were cultured in Hepatocytes Culture Medium (HCM; Lonza, MD, USA) with 10 ng/mL hepatocyte growth factor (HGF; PeproTech, NJ, USA), 0.1 uM Dexamethasone (Dex; Sigma) and 20 ng/mL Oncostatin M (OSM; R&D Systems). Cultures for HLO induction were maintained at 37° C. in 5% CO2 with 95% air and the medium was replaced every 2-3 days. To analyze HLO (day 20-30), organoids were isolated from Matrigel by scratching and pipetting.
# [6] = test system: human iPSC-liver organoid; test: Albumin ELISA of organoid culture supernatant; format: cell-based; conditions: 4 days RA; supernatant collected in 24 hrs
# Procedure: as §2
# liver organoids = test: ROS live-cell imaging of liver organoids; format: cell-based, human
# Description: as §1
structure (smiles),measurement,setting,value
"CCCCCCCC/C=C\CCCCCCCC(=O)O [OA, oleic acid]","lipid accumulation, increase in sHLO","[1]; 0, 200, 400, 800 μM OA, 3 days, dose dependent",up to 18 fold
same,hepatocyte ballooning (enlargement),"[1]; 800 μM OA treated sHLO, live imaging of cellular membrane",confirmed
same,"effectiveness in inducing lipid accumulation among FFAs (OA, LA, PA, SA)",[1],most effective
same,size of lipid droplets,"[1]; OA treated sHLO, 3 days",enlarged
same,triglycerides,[2],detected
same,IL-6 secretion compared to the untreated,IL-6,2.2 fold
same,IL-8 gene expression increase,IL-8,10 fold
same,TNF-alpha gene expression increase,TNF-alpha,2 fold
same,"THP-1 migration cells, increase",THP-1,up to 2 fold
same,P3NP secretion compared with the untreated,P3NP,2.8 fold
same,"Young's modulus, Emedian",[3]; 200 μM OA,1.6 kPa
same,"Young's modulus, Emedian",[3]; 400 μM OA,2.4 kPa
same,"Young's modulus, Emedian",[3]; 800 μM OA,2.8 kPa
same,difference between 90th percentile and 10th percentile (ΔP90-10) of Young's modulus,[3]; 800 μM OA,7.0 kPa
same,trichrome positive HLO,[4]; cHLO (OA 5 days),significantly increased
same,trichrome positive HLO,[4]; sHLO (OA 3 days),not observed
"CC1=C(/C=C/C(C)=C/C=C/C(C)=C/C(=O)O)C(C)(C)CCC1 [RA, retinoic acid]","number of organoids, increase compared to untreated",[5]; day 20,1.8 fold
same,"organoid size, increase after treatment",[5]; day 20,1.5 fold
same,organoids with internal luminal structure,[5]; day 25,95%
same,albumin secretion,[6],3.0 to 6.5 µg/mL
"CCCCCCCCCCCCCCCCCC(=O)O [SA, stearic acid]","effectiveness in inducing lipid accumulation among FFAs (OA, LA, PA, SA)",[1],least effective
Oc1ccc(C=Cc2cc(O)cc(O)c2)cc1 [resveratrol],effect on ROS production of liver organoids,liver organoids,No effectiveness
